tested on: human liver microsomes, metabolic stability half-life; assay: NCATS Human Liver Microsomal (HLM) Stability Profiling; details: higher = more stable; screened at 1 µM (by protocol)
Outline: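 Substrate depletion (in vitro t1/2): 1 µM compound with 0.5 mg/mL microsomes and NADPH regenerating system, phosphate buffer pH 7.4, 37 °C. Sampled at 0, 5, 10, 15, 30, 60 min into cold acetonitrile with albendazole internal standard for MS quantification.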

Row | SMILES | half-life
1 | CC(=O)NC[C@H]1CN(c2ccc(N3CCSCC3)c(F)c2)C(=O)O1 | > 120 min
2 | CCCCN(CCCC)C(=O)CN1C[C@H](c2ccc3c(c2)OCO3)[C@@H](C(=O)O)[C@@H]1c1ccc(OC)cc1 | 72.6 min
3 | OCCN1CCN(CCCN2c3ccccc3C=Cc3ccccc32)CC1 | > 120 min
4 | Cc1oc(=O)oc1COC(=O)[C@@H]1N2C(=O)[C@@H](NC(=O)[C@H](N)c3ccccc3)[C@H]2SC1(C)C | 12.2 min
5 | FC(F)(F)Oc1ccc(-c2ccc3nnc(C(F)(F)F)n3c2)cc1 | > 120 min
6 | CC(C)C(Br)C(=O)NC(N)=O (stereo not drawn) | > 120 min
7 | Cc1nc2c3ccccc3nc(NNC(=O)CCC(=O)N3CCN(c4cccc(Cl)c4)CC3)n2n1 | 10.9 min
8 | Cc1nc(N)nc(N)c1-c1ccc(Cl)c(Cl)c1 | > 120 min
9 | CCCC(C)(COC(N)=O)COC(=O)NC(C)C (stereo not drawn) | > 120 min
10 | [O-][n+]1cccc(CO)c1 | > 120 min
11 | CN1[C@@H]2CC[C@H]1CC(OC(=O)c1c[nH]c3ccccc13)C2 (stereo partly drawn) | > 120 min
12 | O=C(OCC(O)CO)c1ccccc1Nc1ccnc2c(C(F)(F)F)cccc12 (stereo not drawn) | 34.6 min
13 | CC(C)(C)C1CCC(CC2=C(O)c3ccccc3C(=O)C2=O)CC1 (stereo not drawn) | > 120 min
14 | CNc1ccc2oc(C[C@H]3O[C@@]4(CC[C@H]3C)O[C@H](C(C)C(=O)c3ccc[nH]3)[C@H](C)C[C@H]4C)nc2c1C(=O)O (stereo partly drawn) | > 120 min
15 | O=C(O)Cn1nnc(-c2cc(N3CCC(Oc4cc(F)ccc4Br)CC3)no2)n1 | > 120 min
16 | O=C(c1ccccn1)N(Cc1cccs1)C1(C(=O)NC2CCCCC2)CCCCC1 | 1.6 min
17 | Cc1ccc(Cl)c(OCC(O)CNC(C)(C)C)c1 (stereo not drawn) | 1.53 min
18 | O=C(C=Cc1cccc(S(=O)(=O)Nc2ccccc2)c1)NO | > 120 min
19 | Clc1ccc(COC(Cn2ccnc2)c2ccc(Cl)cc2Cl)cc1 (stereo not drawn) | 89.8 min
20 | CCCOc1ccc(-c2nc(OC)c3ccccc3n2)cc1 | 14.7 min
21 | CN/C(=C\[N+](=O)[O-])NCCSCc1csc(CN(C)C)n1 | > 120 min
22 | CN(C(=O)C(c1ccccc1)c1ccccc1)[C@H](CN1CC[C@H](O)C1)c1ccccc1 | 9.29 min
23 | COc1cc(-c2nn(C3CCC(N4CCN(C(C)=O)CC4)CC3)c3ncnc(N)c23)ccc1NC(=O)c1cc2ccccc2n1C (stereo not drawn) | > 120 min
24 | CC(C)CN1C(=O)c2cccn2CC1C(=O)N1CCN(C)CC1 (stereo not drawn) | 62.8 min
25 | O=C(Nc1cccc(-c2nc3ccccc3o2)c1)c1ccccc1Cl | 9.1 min
26 | COc1cc2c(Oc3ccc(-c4cnc(Nc5ccc(F)cc5)n(C)c4=O)cc3F)ccnc2cc1OCCCN1CCOCC1 | 30.6 min
27 | NC(=O)C1(N2CCCCC2)CCN(CCCC(=O)c2ccc(F)cc2)CC1 | 101 min

Row | SMILES | half-life
28 | CN1CCN(C(=O)Cc2cccn2-c2ccc(F)cc2)CC1 | > 120 min
29 | O=C(O)Cc1ccc2oc(-c3ccc(NC(=O)/C=C/c4ccc(Br)cc4)c(F)c3)nc2c1 | > 120 min
30 | COc1ccc(C)cc1Nc1c2c(nc3ccccc13)CCC2 | 29.9 min
31 | O=C(Cn1ccnc1[N+](=O)[O-])NCc1ccccc1 | > 120 min
32 | O=C(O)c1cn(C2CC2)c2cc(Cl)c(F)cc2c1=O | > 120 min
33 | COc1ccccc1N1CCN(c2csc3ccc(Cl)cc3c2=O)CC1 | 15.7 min
34 | CCc1cccc2cc(C(O)CNC(C)(C)C)oc12 (stereo not drawn) | 96.4 min
35 | CCN(C(=O)c1sc2cc(OC)ccc2c1Cl)c1ccccc1 | 3.3 min
36 | Nc1nccs1 | 53.7 min
37 | Oc1ccccc1-c1nnco1 | 43.3 min
38 | CCOC(=O)c1cccnc1 | 9.43 min
39 | CN(C(=O)c1ccc(F)cc1C(F)(F)F)C1CCN(c2nnc(-c3ccnn3C)c3ccccc23)CC1 | 30.3 min
40 | COc1cc(O)cc(O)c1 | > 120 min
41 | CC(=O)N1CCCc2cc(S(=O)(=O)Nc3ccc(OC(F)(F)F)cc3)ccc21 | 20.9 min
42 | CC1(c2ccccc2)N(Cc2ccccc2)C(=O)OC12CCN(Cc1cccc(C#N)c1)CC2 (stereo not drawn) | 2.04 min
43 | COc1ccc2nc([C@H]3CCN(Cc4ccc(C(=O)O)cc4)C3)[nH]c2c1 | > 120 min
44 | CCOC(=O)[C@H](CCc1ccccc1)N[C@H]1CS[C@H](c2cccs2)CN(CC(=O)O)C1=O | 6.54 min
45 | Cc1ccc(-c2ccccc2C#N)cc1 | 1 min
46 | COc1cc(Nc2nc3ccccc3nc2NS(=O)(=O)c2cccc(NC(=O)c3ccc(C)c(OC)c3)c2)cc(OC)c1 | 14 min
47 | CCCOc1cc(N)ccc1C(=O)OCCN(CC)CC | 70.3 min
48 | COC(=O)c1ccc([C@H]2c3[nH]c4ccccc4c3C[C@H](C(=O)OC)N2C(=O)CCl)cc1 | 8.55 min
49 | N#Cc1cccc(CN2CC(COc3ccccc3)C3(C2)CN(c2ccccc2)C3)c1 (stereo not drawn) | 3.65 min
50 | CCN(CC)C(=O)c1cccc(C)c1 | > 120 min
51 | CCc1cc2cc(OC)c(OC)cc2c(Cc2ccccc2)n1 | 8.36 min
52 | Cc1cc(-c2ncc(CC(=O)Nc3ccc(-c4cnccn4)cn3)cc2C)ccn1 | 36.4 min
53 | COc1ccc2cc(-c3cc(-c4cc(Cl)cc(Cl)c4)nn3C(C)c3ccc(C(=O)NCCC(=O)O)cc3)ccc2c1 (stereo not drawn) | > 120 min
